Assay results: patent EP4740948A1 (Dong Wha Pharm. Co., Ltd., priority 2023, dated 2025)

Assays:
EZH1 = EZH1 (Homo sapiens, UniProt Q92800); assay: AlphaLISA enzyme activity inhibition, EZH1; format: biochemical; conditions: 5nM test substance
Summary of the method: (§1)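 EZH1 or EZH2 was mixed with compound at 5 nM or 10 nM final in 20 mM Tris pH 8.0, 0.1% BSA, 0.5 mM DTT, then histone H3 peptide and SAM were added. After 2 h reaction, AlphaLISA acceptor and donor beads detected methylation; inhibition rate was calculated against DMSO control.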

EZH2 = EZH2 (Homo sapiens, UniProt Q15910); assay: AlphaLISA enzyme activity inhibition, EZH2; format: biochemical; conditions: 5nM test substance
EZH2, sequence (Q15910 whole entry, species assumed): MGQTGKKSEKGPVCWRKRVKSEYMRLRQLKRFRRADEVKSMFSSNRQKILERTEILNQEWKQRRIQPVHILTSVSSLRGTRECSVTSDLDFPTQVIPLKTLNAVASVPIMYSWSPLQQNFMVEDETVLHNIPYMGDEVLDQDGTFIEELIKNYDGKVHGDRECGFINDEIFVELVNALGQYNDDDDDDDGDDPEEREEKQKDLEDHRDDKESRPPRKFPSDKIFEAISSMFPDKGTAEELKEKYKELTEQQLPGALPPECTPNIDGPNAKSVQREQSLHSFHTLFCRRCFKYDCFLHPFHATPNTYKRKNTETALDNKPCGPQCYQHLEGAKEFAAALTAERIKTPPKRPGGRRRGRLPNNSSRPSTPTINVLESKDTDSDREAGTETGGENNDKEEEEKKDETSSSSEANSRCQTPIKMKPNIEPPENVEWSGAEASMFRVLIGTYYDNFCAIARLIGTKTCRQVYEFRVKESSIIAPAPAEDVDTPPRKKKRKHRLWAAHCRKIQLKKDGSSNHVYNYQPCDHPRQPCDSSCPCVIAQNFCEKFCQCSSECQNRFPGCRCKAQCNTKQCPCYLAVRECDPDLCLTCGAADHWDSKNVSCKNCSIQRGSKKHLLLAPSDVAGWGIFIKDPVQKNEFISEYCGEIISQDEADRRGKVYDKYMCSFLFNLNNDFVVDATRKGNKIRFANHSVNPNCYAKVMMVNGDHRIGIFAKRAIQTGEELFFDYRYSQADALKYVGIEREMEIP
EZH2, sequence (O75530 whole entry partner, species assumed): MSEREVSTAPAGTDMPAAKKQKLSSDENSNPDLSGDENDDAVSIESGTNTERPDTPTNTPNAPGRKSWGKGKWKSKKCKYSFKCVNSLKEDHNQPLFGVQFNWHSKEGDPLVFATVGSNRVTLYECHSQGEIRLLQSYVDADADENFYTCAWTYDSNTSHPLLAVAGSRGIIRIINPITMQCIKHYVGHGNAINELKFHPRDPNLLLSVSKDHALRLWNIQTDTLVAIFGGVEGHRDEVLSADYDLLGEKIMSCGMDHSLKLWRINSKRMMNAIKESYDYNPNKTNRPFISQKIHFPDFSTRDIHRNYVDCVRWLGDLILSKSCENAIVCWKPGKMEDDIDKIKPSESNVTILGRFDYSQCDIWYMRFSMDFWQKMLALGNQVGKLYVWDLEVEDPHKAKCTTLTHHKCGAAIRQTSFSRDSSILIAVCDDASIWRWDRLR
EZH2, sequence (Q15022 whole entry partner, species assumed): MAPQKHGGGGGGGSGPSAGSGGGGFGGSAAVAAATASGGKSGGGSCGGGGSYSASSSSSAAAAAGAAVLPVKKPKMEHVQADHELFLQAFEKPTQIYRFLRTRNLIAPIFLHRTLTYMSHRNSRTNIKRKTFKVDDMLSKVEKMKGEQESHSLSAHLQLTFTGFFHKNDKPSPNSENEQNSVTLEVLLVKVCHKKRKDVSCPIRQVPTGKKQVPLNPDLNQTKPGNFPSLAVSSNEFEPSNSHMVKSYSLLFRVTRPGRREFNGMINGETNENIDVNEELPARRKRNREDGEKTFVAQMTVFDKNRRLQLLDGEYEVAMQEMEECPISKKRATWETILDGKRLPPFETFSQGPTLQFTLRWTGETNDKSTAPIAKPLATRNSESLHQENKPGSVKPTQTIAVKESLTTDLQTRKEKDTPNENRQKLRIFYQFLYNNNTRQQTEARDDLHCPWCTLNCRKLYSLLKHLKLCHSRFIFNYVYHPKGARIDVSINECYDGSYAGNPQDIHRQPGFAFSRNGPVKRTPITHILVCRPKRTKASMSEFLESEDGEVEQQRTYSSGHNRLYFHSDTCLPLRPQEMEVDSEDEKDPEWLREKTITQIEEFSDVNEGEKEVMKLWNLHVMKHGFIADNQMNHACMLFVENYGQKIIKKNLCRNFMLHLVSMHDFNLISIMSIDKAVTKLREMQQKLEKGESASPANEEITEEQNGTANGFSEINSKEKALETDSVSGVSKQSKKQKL
Summary of the method: as §1

Lovo cells = assay: Cancer cell proliferation inhibition (Cell Counting Kit-8), colorectal cancer cell line; format: cell-based; conditions: 1000 nM, cultured seven to 11 days; for inhibition at 1 µM: Homo sapiens, LoVo, 264 h, read-out: % inhibition rate LoVo
Summary of the method: (§2)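 One dose only (1000 nM), 7–11 d exposure, 10% FBS in line-appropriate medium; CCK-8 endpoint, inhibition expressed relative to control.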

G401 cells = assay: Cancer cell proliferation inhibition (Cell Counting Kit-8), rhabdoid tumor cell line; format: cell-based; conditions: 1000 nM, cultured seven to 11 days; for inhibition at 1 µM: Homo sapiens, G-401, 264 h, read-out: % inhibition rate G401
Summary of the method: (§3)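 Cells grown in RPMI1640, McCoy's 5a, L-15 or DMEM with 10% FBS, seeded at 100 to 1,000 cells/well and treated with test substance at 1000 nM for 7 to 11 days. Viability read by CCK-8; % inhibition = {1−(test/control)} × 100.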

MKN-45 cells = assay: Cancer cell proliferation inhibition (Cell Counting Kit-8), gastric cancer cell line; format: cell-based; conditions: 1000 nM, cultured seven to 11 days; for inhibition at 1 µM: Homo sapiens, MKN-45, 264 h, read-out: % inhibition rate MKN -45
Summary of the method: as §3

SW-13 cells = assay: Cancer cell proliferation inhibition (Cell Counting Kit-8), adrenal cancer cell line; format: cell-based; conditions: 1000 nM, cultured seven to 11 days; for inhibition at 1 µM: Homo sapiens, SW13, 264 h, read-out: % inhibition rate SW-13
Summary of the method: as §2

MIA-PaCa-2 cells = assay: Cancer cell proliferation inhibition (Cell Counting Kit-8), pancreatic cancer cell line; format: cell-based; conditions: 1000 nM, cultured seven to 11 days; for inhibition at 1 µM: Homo sapiens, MIA PaCa-2, 264 h, read-out: % inhibition rate MIA-Paca2
Summary of the method: as §2

NCI-H1299 cells = assay: Cancer cell proliferation inhibition (Cell Counting Kit-8), lung cancer cell line; format: cell-based; conditions: 1000 nM, cultured seven to 11 days; for inhibition at 1 µM: Homo sapiens, NCI-H1299, 264 h, read-out: % inhibition rate NCI-H129 9
Summary of the method: as §2

EZH1, sequence (Q92800 whole entry, species assumed): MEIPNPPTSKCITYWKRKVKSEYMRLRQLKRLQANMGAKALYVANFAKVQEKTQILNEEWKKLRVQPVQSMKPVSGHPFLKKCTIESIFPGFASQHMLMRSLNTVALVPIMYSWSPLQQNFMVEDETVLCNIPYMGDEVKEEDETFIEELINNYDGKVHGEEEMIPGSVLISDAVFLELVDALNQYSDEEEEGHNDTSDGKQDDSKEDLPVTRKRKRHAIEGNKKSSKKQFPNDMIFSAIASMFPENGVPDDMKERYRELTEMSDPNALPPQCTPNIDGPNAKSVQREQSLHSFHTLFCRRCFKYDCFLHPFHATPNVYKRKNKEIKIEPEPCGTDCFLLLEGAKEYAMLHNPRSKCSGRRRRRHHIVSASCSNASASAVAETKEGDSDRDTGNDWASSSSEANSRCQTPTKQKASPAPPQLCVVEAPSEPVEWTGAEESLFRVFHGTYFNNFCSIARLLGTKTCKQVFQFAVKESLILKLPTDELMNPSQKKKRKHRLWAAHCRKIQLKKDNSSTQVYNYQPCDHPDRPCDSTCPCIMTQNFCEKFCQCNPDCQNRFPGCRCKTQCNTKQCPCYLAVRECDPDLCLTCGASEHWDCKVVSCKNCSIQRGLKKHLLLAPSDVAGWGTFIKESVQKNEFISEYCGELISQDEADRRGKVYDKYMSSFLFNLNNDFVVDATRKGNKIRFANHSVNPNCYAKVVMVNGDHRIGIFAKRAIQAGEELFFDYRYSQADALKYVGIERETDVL
EZH1, sequence (O75530 whole entry partner, species assumed): as the sequence (O75530 whole entry partner, species assumed) above
EZH1, sequence (Q15022 whole entry partner, species assumed): as the sequence (Q15022 whole entry partner, species assumed) above

Compound | Enzyme inhibition % EZH1 (EZH1; 0.005 µM) [%] | Enzyme inhibition % EZH2 (EZH2; 0.005 µM) [%] | % inhibition rate LoVo (Lovo cells) | % inhibition rate G401 (G401 cells; 1 µM) | % inhibition rate MKN -45 (MKN-45 cells) | % inhibition rate SW-13 (SW-13 cells) | % inhibition rate MIA-Paca2 (MIA-PaCa-2 cells) | % inhibition rate NCI-H129 9 (NCI-H1299 cells) | inhibition at 0.005 µM (EZH1) [%] | inhibition at 0.005 µM (EZH2) [%] | inhibition at 1 µM (Lovo cells) [%] | inhibition at 1 µM (G401 cells) [%] | inhibition at 1 µM (MKN-45 cells) [%] | inhibition at 1 µM (SW-13 cells) [%] | inhibition at 1 µM (MIA-PaCa-2 cells) [%] | inhibition at 1 µM (NCI-H1299 cells) [%]
CSc1cc(C)[nH]c(=O)c1CNC(=O)c1cc(-c2ccc(N3C[C@@H](C)O[C@@H](C)C3)nc2)c2c(c1C)OC(C)([C@H]1CC[C@H](N(C)CC(F)(F)F)CC1)O2 (single isomer, unassigned) [Compound 108] | 20.4 | 4.3 | +++ (+++: ≥70%) | + (+: ≤30%) | + (+: ≤30%) | + (+: ≤30%) | + (+: ≤30%) | + (+: ≤30%) |  |  |  |  |  |  |  | 
CSc1cc(C)[nH]c(=O)c1CNC(=O)c1cc(-c2ccc(N3C[C@@H](C)O[C@@H](C)C3)nc2)c2c(c1C)OC(C)([C@H]1CC[C@H](N(C)C)CC1)O2 (stereo partly drawn) [Compound 1, 2-(trans-4-(dimethylamino)cyclohexyl)-7-(6-((2S,6R)-2,6-dimethylmorpholino)pyridin-3-yl)-2,4-dimethyl-N-((6-methyl-4-(methylthio)-2-oxo-1,2-dihydropyridin-3-yl)methyl)benzo[d][1,3]dioxole-5-carboxamide] |  |  |  |  |  |  |  |  | 89.1 | 98.7 | 30 to 70 | 30 to 70 | ≤ 30 | 30 to 70 | ≤ 30 | ≤ 30
CSc1cc(C)[nH]c(=O)c1CNC(=O)c1cc(-c2cnc(N3C[C@@H](C)O[C@@H](C)C3)nc2)c2c(c1C)OC(C)([C@H]1CC[C@H](N(C)C)CC1)O2 (some centres unmarked) [Compound 2] |  |  |  |  |  |  |  |  | 82 | 92.9 | 30 to 70 | 30 to 70 | ≤ 30 | 30 to 70 | ≤ 30 | ≤ 30
CSc1cc(C)[nH]c(=O)c1CNC(=O)c1cc(-c2ccc(N3C[C@@H](C)O[C@@H](C)C3)nc2)c2c(c1C)OC(C)([C@H]1CC[C@H](N(C)CC(F)(F)F)CC1)O2 (stereo partly drawn) [Compound 20, 7-(6-((2S,6R)-2,6-dimethylmorpholino)pyridin-3-yl)-2,4-dimethyl-2-(trans-4-(methyl(2,2,2-trifluoroethyl)amino)cyclohexyl)-N-((6-methyl-4-(methylthio)-2-oxo-1,2-dihydropyridin-3-yl)methyl)benzo[d][1,3]dioxole-5-carboxamide] |  |  |  |  |  |  |  |  | 34.3 | 26.1 | ≥ 70 | 30 to 70 | 30 to 70 | ≤ 30 | ≤ 30 | ≤ 30
CSc1cc(C)[nH]c(=O)c1CNC(=O)c1cc(-c2cnc(N3C[C@@H](C)O[C@@H](C)C3)nc2)c2c(c1C)OC(C)([C@H]1CC[C@H](N(C)CC(F)(F)F)CC1)O2 (stereo partly drawn) [Compound 23, 7-(2-((2S,6R)-2,6-dimethylmorpholino)pyrimidin-5-yl)-2,4-dimethyl-2-(trans-4-(methyl(2,2,2-trifluoroethyl)amino)cyclohexyl)-N-((6-methyl-4-(methylthio)-2-oxo-1,2-dihydropyridin-3-yl)methyl)benzo[d][1,3]dioxole-5-carboxamide] |  |  |  |  |  |  |  |  | 31.4 | 34.2 | ≥ 70 | 30 to 70 | ≤ 30 | ≤ 30 | ≤ 30 | ≤ 30
COCCN(C)[C@H]1CC[C@H](C2(C)Oc3c(-c4ccc(N5C[C@@H](C)O[C@@H](C)C5)nc4)cc(C(=O)NCc4c(SC)cc(C)[nH]c4=O)c(C)c3O2)CC1 (stereo partly drawn) [Compound 24, 7-(6-((2S,6R)-2,6-dimethylmorpholino)pyridin-3-yl)-2-(trans-4-((2-methoxyethyl)(methyl)amino)cyclohexyl)-2,4-dimethyl-N-((6-methyl-4-(methylthio)-2-oxo-1,2-dihydropyridin-3-yl)methyl)benzo[d][1,3]dioxole-5-carboxamide] |  |  |  |  |  |  |  |  | 35.1 | 98.6 | ≥ 70 | 30 to 70 | ≤ 30 | 30 to 70 | ≤ 30 | ≤ 30
COCCN(C)[C@H]1CC[C@H](C2(C)Oc3c(-c4cnc(N5C[C@@H](C)O[C@@H](C)C5)nc4)cc(C(=O)NCc4c(SC)cc(C)[nH]c4=O)c(C)c3O2)CC1 (stereo partly drawn) [Compound 25, 7-(2-((2S,6R)-2,6-dimethylmorpholino)pyrimidin-5-yl)-2-(trans-4-((2-methoxyethyl)(methyl)amino)cyclohexyl)-2,4-dimethyl-N-((6-methyl-4-(methylthio)-2-oxo-1,2-dihydropyridin-3-yl)methyl)benzo[d][1,3]dioxole-5-carboxamide] |  |  |  |  |  |  |  |  | 82.4 | 97.6 | ≥ 70 | 30 to 70 | ≤ 30 | 30 to 70 | ≤ 30 | ≤ 30
CSc1cc(C)[nH]c(=O)c1CNC(=O)c1cc(-c2ccc(N3C[C@@H](C)O[C@@H](C)C3)nc2)c2c(c1C)OC(C)([C@H]1CC[C@H](N(C)C[C@H](C)O)CC1)O2 (stereo partly drawn) [Compound 29, 7-(6-((2S,6R)-2,6-dimethylmorpholino)pyridin-3-yl)-2-(trans-4-(((S)-2-hydroxypropyl)(methyl)amino)cyclohexyl)-2,4-dimethyl-N-((6-methyl-4-(methylthio)-2-oxo-1,2-dihydropyridin-3-yl)methyl)benzo[d][1,3]dioxole-5-carboxamide] |  |  |  |  |  |  |  |  | 91.6 | 98.3 | ≥ 70 | 30 to 70 | ≤ 30 | 30 to 70 | ≤ 30 | ≤ 30
CCCOCCN(C)[C@H]1CC[C@H](C2(C)Oc3c(-c4ccc(N5C[C@@H](C)O[C@@H](C)C5)nc4)cc(C(=O)NCc4c(SC)cc(C)[nH]c4=O)c(C)c3O2)CC1 (stereo partly drawn) [Compound 30, 7-(6-((2S,6R)-2,6-dimethylmorpholino)pyridin-3-yl)-2,4-dimethyl-2-(trans-4-(methyl(2-propoxyethyl)amino)cyclohexyl)-N-((6-methyl-4-(methylthio)-2-oxo-1,2-dihydropyridin-3-yl)methyl)benzo[d][1,3]dioxole-5-carboxamide] |  |  |  |  |  |  |  |  | 80.4 | 83.1 | ≥ 70 | 30 to 70 | 30 to 70 | 30 to 70 | ≤ 30 | ≤ 30
COC(CN(C)[C@H]1CC[C@H](C2(C)Oc3c(-c4ccc(N5C[C@@H](C)O[C@@H](C)C5)nc4)cc(C(=O)NCc4c(SC)cc(C)[nH]c4=O)c(C)c3O2)CC1)OC (stereo partly drawn) [Compound 31, 2-(trans-4-((2,2-dimethoxyethyl)(methyl)amino)cyclohexyl)-7-(6-((2S,6R)-2,6-dimethylmorpholino)pyridin-3-yl)-2,4-dimethyl-N-((6-methyl-4-(methylthio)-2-oxo-1,2-dihydropyridin-3-yl)methyl)benzo[d][1,3]dioxole-5-carboxamide] |  |  |  |  |  |  |  |  | 67.3 | 75.6 | ≥ 70 | 30 to 70 | 30 to 70 | 30 to 70 | ≤ 30 | ≤ 30
